Results from PubChem BioAssay (NCI).
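Exposure lasted 48 hours, with cells grown in 96-well plates and compounds tested at five concentrations. The concentration for 50% growth inhibition is given as GI50. TGI is the concentration that stops growth completely.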

What was measured:
Assay in all cases: NCI-60 cell line screen, 48 h
M14 melanoma = system: M14 melanoma
HT29 colon = system: HT29 colon
SF-295 CNS = system: SF-295 CNS
PC-3 prostate = system: PC-3 prostate
MALME-3M melanoma = system: MALME-3M melanoma
TK-10 renal = system: TK-10 renal
A549 NSCLC = system: A549 NSCLC
NCI-H460 lung = system: NCI-H460 lung
ACHN renal = system: ACHN renal
UO-31 renal = system: UO-31 renal

CN(C)CC1C(=O)O[C@H]2[C@H]1CC/C(COC(=O)NCc1ccc(Cn3c(=O)sn(CCCI)c3=O)cc1)=C\CC[C@@]1(C)O[C@@H]21 (some centres not stated)
GI50 (M14 melanoma): 0.893 µM
TGI (M14 melanoma): 1.92 µM
GI50 (HT29 colon): 0.945 µM
TGI (HT29 colon): 1.84 µM
GI50 (SF-295 CNS): 7.43 µM
TGI (SF-295 CNS): 14.5 µM
GI50 (PC-3 prostate): 0.251 µM
TGI (PC-3 prostate): 7.32 µM
GI50 (MALME-3M melanoma): 0.836 µM
TGI (MALME-3M melanoma): 1.69 µM
GI50 (TK-10 renal): 0.862 µM
TGI (TK-10 renal): 1.64 µM
GI50 (A549 NSCLC): 7.17 µM
TGI (A549 NSCLC): 14.4 µM
GI50 (NCI-H460 lung): 7.77 µM
TGI (NCI-H460 lung): 17.2 µM
GI50 (ACHN renal): 0.861 µM
TGI (ACHN renal): 1.58 µM
GI50 (UO-31 renal): 0.775 µM
TGI (UO-31 renal): 1.52 µM

CCN(CC)S(=O)(=O)c1cccc(-c2ccc3c(NC(=O)C4CC4)n[nH]c3c2)c1
GI50 (M14 melanoma): 1.47 µM
TGI (M14 melanoma): > 6.25 µM
GI50 (HT29 colon): 2.3 µM
TGI (HT29 colon): > 6.25 µM
GI50 (SF-295 CNS): 1.66 µM
TGI (SF-295 CNS): > 6.25 µM
GI50 (PC-3 prostate): 2.11 µM
TGI (PC-3 prostate): > 6.25 µM
GI50 (MALME-3M melanoma): 1.46 µM
TGI (MALME-3M melanoma): > 6.25 µM
GI50 (TK-10 renal): 5.06 µM
TGI (TK-10 renal): > 6.25 µM
GI50 (A549 NSCLC): 2.79 µM
TGI (A549 NSCLC): > 6.25 µM
GI50 (NCI-H460 lung): 2.08 µM
TGI (NCI-H460 lung): > 6.25 µM
GI50 (ACHN renal): 3.54 µM
TGI (ACHN renal): > 6.25 µM
GI50 (UO-31 renal): 3.97 µM
TGI (UO-31 renal): > 6.25 µM

Cc1cc2c3c([n+](C)c4ccc(F)cc4c3c1)-c1cc(F)ccc1N2C
GI50 (M14 melanoma): 23.4 µM
TGI (M14 melanoma): 62.9 µM
GI50 (HT29 colon): 33.2 µM
TGI (HT29 colon): > 100 µM
GI50 (SF-295 CNS): 7.54 µM
TGI (SF-295 CNS): > 100 µM
GI50 (PC-3 prostate): 19.9 µM
TGI (PC-3 prostate): 77.7 µM
GI50 (MALME-3M melanoma): 4.19 µM
TGI (MALME-3M melanoma): 17.2 µM
GI50 (TK-10 renal): 51.8 µM
TGI (TK-10 renal): > 100 µM
GI50 (A549 NSCLC): 43.5 µM
TGI (A549 NSCLC): > 100 µM
GI50 (NCI-H460 lung): 15.4 µM
TGI (NCI-H460 lung): 49.5 µM
GI50 (ACHN renal): 39.1 µM
TGI (ACHN renal): > 100 µM
GI50 (UO-31 renal): > 100 µM
TGI (UO-31 renal): > 100 µM

Cc1ccc(N=Nc2c(O)ccc3n[nH]nc23)cc1
GI50 (M14 melanoma): 27.8 µM
TGI (M14 melanoma): > 100 µM
GI50 (HT29 colon): 31.8 µM
TGI (HT29 colon): > 100 µM
GI50 (SF-295 CNS): 11.3 µM
TGI (SF-295 CNS): 38 µM
GI50 (PC-3 prostate): 5.99 µM
TGI (PC-3 prostate): > 100 µM
GI50 (MALME-3M melanoma): 8.17 µM
TGI (MALME-3M melanoma): 48 µM
GI50 (TK-10 renal): 11.7 µM
TGI (TK-10 renal): 73.5 µM
GI50 (A549 NSCLC): 14.2 µM
TGI (A549 NSCLC): > 100 µM
GI50 (NCI-H460 lung): 13.9 µM
TGI (NCI-H460 lung): 52.9 µM
GI50 (ACHN renal): 11.5 µM
TGI (ACHN renal): 69.2 µM
GI50 (UO-31 renal): 11.7 µM
TGI (UO-31 renal): 44.9 µM

C=C1C(=O)O[C@@H]2CC(CO)=C([C@@H](C)CCCO)[C@@H](OC(=O)/C(C)=C\C)[C@H]12
TGI (M14 melanoma): > 81.4 µM
TGI (HT29 colon): 26.6 µM
TGI (SF-295 CNS): > 100 µM
TGI (PC-3 prostate): 45.7 µM
TGI (MALME-3M melanoma): 32.5 µM
TGI (TK-10 renal): 45.9 µM
TGI (A549 NSCLC): > 71.9 µM
TGI (NCI-H460 lung): 48.2 µM
TGI (ACHN renal): 39.8 µM
TGI (UO-31 renal): > 65 µM

O=C(NNc1ccccc1)c1ccc(Cl)c(Cl)c1
TGI (M14 melanoma): > 100 µM
TGI (HT29 colon): > 100 µM
TGI (SF-295 CNS): > 86.5 µM
TGI (PC-3 prostate): > 100 µM
TGI (MALME-3M melanoma): > 92.5 µM
TGI (TK-10 renal): > 100 µM
TGI (A549 NSCLC): > 100 µM
TGI (NCI-H460 lung): > 100 µM
TGI (ACHN renal): > 100 µM
TGI (UO-31 renal): > 100 µM

[Cl][Hg][c]1ccc2ccccc2c1
GI50 (M14 melanoma): 1.46 µM
TGI (M14 melanoma): 2.96 µM
GI50 (HT29 colon): 2.8 µM
TGI (HT29 colon): 9.58 µM
GI50 (SF-295 CNS): 7.01 µM
TGI (SF-295 CNS): 18.9 µM
GI50 (PC-3 prostate): 3.92 µM
TGI (PC-3 prostate): 11.8 µM
GI50 (MALME-3M melanoma): 1.78 µM
TGI (MALME-3M melanoma): 3.4 µM
GI50 (TK-10 renal): 2.92 µM
TGI (TK-10 renal): 6.62 µM
GI50 (A549 NSCLC): 12.1 µM
TGI (A549 NSCLC): 27.1 µM
GI50 (NCI-H460 lung): 4.18 µM
TGI (NCI-H460 lung): 23.8 µM
GI50 (ACHN renal): 4.33 µM
TGI (ACHN renal): 11.8 µM
GI50 (UO-31 renal): 4.44 µM
TGI (UO-31 renal): 8.23 µM

Cn1c2c(c3ccccc3c1=O)C(=O)c1ccccc1-2
TGI (M14 melanoma): > 100 µM
TGI (HT29 colon): > 100 µM
TGI (SF-295 CNS): > 100 µM
TGI (PC-3 prostate): > 100 µM
TGI (MALME-3M melanoma): > 100 µM
TGI (TK-10 renal): > 100 µM
TGI (A549 NSCLC): > 100 µM
TGI (UO-31 renal): > 100 µM

O=C1CC(Cc2n[nH]c3c2CCCC3)CC(=O)N1
TGI (M14 melanoma): > 100 µM
TGI (HT29 colon): > 100 µM
TGI (SF-295 CNS): > 100 µM
TGI (PC-3 prostate): > 100 µM
TGI (MALME-3M melanoma): > 100 µM
TGI (TK-10 renal): > 100 µM
TGI (A549 NSCLC): > 100 µM

CC(=O)O[C@@H]1C2=C(C)C3(CC3)[C@@](C)(O)C(=O)C2=C[C@@]1(C)CO
GI50 (M14 melanoma): 0.34 µM
TGI (M14 melanoma): 1.61 µM
GI50 (HT29 colon): 0.322 µM
TGI (HT29 colon): > 100 µM
GI50 (SF-295 CNS): 0.406 µM
TGI (SF-295 CNS): 9.87 µM
GI50 (PC-3 prostate): 1.02 µM
TGI (PC-3 prostate): 12.3 µM
GI50 (MALME-3M melanoma): 0.893 µM
TGI (MALME-3M melanoma): 2.5 µM
GI50 (TK-10 renal): 2.6 µM
TGI (TK-10 renal): > 100 µM
GI50 (A549 NSCLC): 1.05 µM
TGI (A549 NSCLC): 24.2 µM
GI50 (NCI-H460 lung): 0.296 µM
TGI (NCI-H460 lung): 1.08 µM
GI50 (ACHN renal): 0.484 µM
TGI (ACHN renal): 2.33 µM

Cc1cc(Cl)nc(N(CCCNc2ccnc3cc(Cl)ccc23)Cc2cccs2)n1
GI50 (M14 melanoma): 1.23 µM
TGI (M14 melanoma): 2.91 µM
GI50 (HT29 colon): 0.57 µM
TGI (HT29 colon): 4.04 µM
GI50 (PC-3 prostate): 1.83 µM
TGI (PC-3 prostate): 13.7 µM
GI50 (MALME-3M melanoma): 1.64 µM
TGI (MALME-3M melanoma): 3.46 µM
GI50 (TK-10 renal): 2.07 µM
TGI (TK-10 renal): 12.1 µM
GI50 (A549 NSCLC): 2.96 µM
TGI (A549 NSCLC): 12.5 µM
GI50 (NCI-H460 lung): 1.56 µM
TGI (NCI-H460 lung): 11 µM
GI50 (ACHN renal): 2 µM
TGI (ACHN renal): 11.5 µM
GI50 (UO-31 renal): 0.456 µM
TGI (UO-31 renal): 3.71 µM

CC(C)c1[nH]nc2c(NCc3ccc(-c4ccccn4)cc3)nc(SCCN(C)C)nc12
GI50 (M14 melanoma): < 0.0133 µM
TGI (M14 melanoma): 0.122 µM
GI50 (HT29 colon): < 0.0158 µM
TGI (HT29 colon): 1.21 µM
GI50 (SF-295 CNS): 0.0799 µM
TGI (SF-295 CNS): 1.92 µM
GI50 (PC-3 prostate): 0.0313 µM
TGI (PC-3 prostate): 3.81 µM
GI50 (MALME-3M melanoma): 0.0986 µM
TGI (MALME-3M melanoma): 0.642 µM
GI50 (TK-10 renal): 0.0456 µM
TGI (TK-10 renal): 11.9 µM
TGI (A549 NSCLC): 13 µM
GI50 (NCI-H460 lung): 0.112 µM
TGI (NCI-H460 lung): 11.7 µM
GI50 (ACHN renal): 0.0864 µM
TGI (ACHN renal): 4.96 µM

Cc1ccc(-c2c3c(nn2-c2ccc(S(=O)(=O)NC(=O)NC4CCCCC4)cc2)-c2ccccc2C3)cc1
GI50 (M14 melanoma): 14.8 µM
TGI (M14 melanoma): 30.1 µM
GI50 (HT29 colon): 24.3 µM
TGI (HT29 colon): > 100 µM
GI50 (SF-295 CNS): 18.7 µM
TGI (SF-295 CNS): 48.7 µM
GI50 (PC-3 prostate): 11.1 µM
TGI (PC-3 prostate): 25.3 µM
GI50 (TK-10 renal): 1.7 µM
TGI (TK-10 renal): 9.85 µM
GI50 (A549 NSCLC): 20.2 µM
TGI (A549 NSCLC): 44 µM
GI50 (NCI-H460 lung): 8.75 µM
TGI (NCI-H460 lung): 26.3 µM
GI50 (ACHN renal): 14.6 µM
TGI (ACHN renal): 29.5 µM
GI50 (UO-31 renal): 1.33 µM
TGI (UO-31 renal): 2.64 µM

O=c1cc(-c2ccccc2)oc2cc(OCCCCCN3CCOCC3)cc(O)c12
GI50 (M14 melanoma): > 100 µM
TGI (M14 melanoma): > 100 µM
GI50 (HT29 colon): 40.3 µM
TGI (HT29 colon): > 100 µM
GI50 (SF-295 CNS): 40.2 µM
TGI (SF-295 CNS): > 100 µM
GI50 (PC-3 prostate): 54.1 µM
TGI (PC-3 prostate): > 100 µM
GI50 (TK-10 renal): 51.4 µM
TGI (TK-10 renal): > 100 µM
GI50 (A549 NSCLC): > 100 µM
TGI (A549 NSCLC): > 100 µM
GI50 (NCI-H460 lung): 90.1 µM
TGI (NCI-H460 lung): > 100 µM
GI50 (ACHN renal): > 100 µM
TGI (ACHN renal): > 100 µM
GI50 (UO-31 renal): 32.7 µM
TGI (UO-31 renal): > 100 µM

O=C(NCc1ccco1)C1CCN(S(=O)(=O)c2ccc(Cl)cc2)CC1
GI50 (HT29 colon): > 100 µM
TGI (HT29 colon): > 100 µM
GI50 (SF-295 CNS): 81.6 µM
TGI (SF-295 CNS): > 100 µM
GI50 (PC-3 prostate): 73.8 µM
TGI (PC-3 prostate): > 100 µM
GI50 (MALME-3M melanoma): > 100 µM
TGI (MALME-3M melanoma): > 100 µM
GI50 (TK-10 renal): > 100 µM
TGI (TK-10 renal): > 100 µM
GI50 (A549 NSCLC): 78.3 µM
TGI (A549 NSCLC): > 100 µM
GI50 (NCI-H460 lung): 47.5 µM
TGI (NCI-H460 lung): > 100 µM
GI50 (ACHN renal): > 100 µM
TGI (ACHN renal): > 100 µM
GI50 (UO-31 renal): 86.6 µM
TGI (UO-31 renal): > 100 µM
